From patent US20030083374A1, “NAALADase inhibitors useful as pharmaceutical compounds and compositions” (priority 1998, published 2003)

Experiments:
[1] = tested on: stroke-induced extracellular glutamate increases; details: rats; cited from earlier work
[2] = tested on: formalin-induced flinching behavior; assay: formalin model of pain; format: in vivo, rats; details: 50 mg/kg i.p. daily for 7 days
Description: (§1) One source of neuronal glutamate is thought to derive from the abundant neuropeptide NAAG which is hydrolyzed by NAALADase to liberate free glutamate. The inventors hypothesized that inhibition of NAALADase could limit pain by preventing this source of glutamate. To test this hypothesis, the inventors examined the possible antinocipetive effects of several NAALADase inhibitors in the formalin-, acetic acid- and chronic constrictive injury (CCI; “Bennett model”) models of pain. […] On day 7, 5% formalin was injected into the dorsum of the rat's hindpaw.

Dunning G tumors = assay: in vivo cancer assay, Dunning G model, subcutaneous drug delivery; parameters: species or system Male Copenhagen syngenic rats
Description: Male Copenhagen syngenic rats, age 8 to 10 weeks, were injected in both flanks with 10^7 Dunning G cells. […] Controls received 50 mM HEPES s.c. daily. Tumors were measured twice a week.
(§2) Response to treatment was monitored in two ways. First, mean tumor volume for each group was presented as tumor:control ratio (% T/C) and these values were compared at one point in time. Second, tumor volume versus time was monitored.

[3] = tested on: cocaine-induced sensitization; assay: in vivo behavioral sensitization to cocaine; parameters: species or system Male Sprague-Dawley rats
Description: NAALADase hydrolyzes the abundant neuropeptide NAAG to liberate glutamate (GLU). The inventors hypothesized that inhibition of NAALADase could attenuate sensitization by preventing this source of GLU. […] Male Sprague-Dawley rats received home cage injections of cocaine (20 mg/kg/day×5 days; i.p.) or sale (1.0 ml/kg). […] Cocaine (20 mg/kg)-induced locomotor activity was assessed 3 days later. […]

[4] = tested on: angiogenesis in Matrigel plugs; assay: in vivo assay of daily dosages on angiogenesis (Matrigel plug, bFGF); parameters: species or system C57B1 female mice; details: 3 mg/kg and 30 mg/kg daily s.c., seven days
Description: The injected Matrigel™ rapidly formed a gel. On the same a day as the Matrigel™ injection, daily subcutaneous injections of Compound 3 around the Matrigel™ plug were initiated. Seven days post Matrigel™ injection, Matrigel™ plugs were excised and histology was performed.
The concentrations of the daily dosages as well as the coinciding initial Matrigel™ plug compositions are provided below in TABLE VI.

[5] = tested on: spinal cord organotypic cultures; details: cited from earlier work
[6] = tested on: hyperalgesia following sciatic nerve constriction; assay: chronic constrictive injury (CCI) model of pain; format: in vivo, rats
Description: as §1
Sciatic nerve ligation, consisting of 4 ligatures being tied loosely around the sciatic nerve at 1 mm intervals proximal to the nerve trifurcation, was performed on rats. […] Animals were habituated to the Hargreaves apparatus and the infrared heat source directed onto the […] surface of the hindpaw and the time taken for the animal to withdraw its paw noted. The difference score (between the latency of the response for the paw on the operated side versus the control side) was determined. […] Normal (unoperated) rats had approximately equal latencies for both paws. This effect was significant starting at 11 days of drug treatment and persisted through to the end of the study (for 21 days of daily dosing).

MPTP lesioned mice = details: cited from earlier work
[7] = tested on: cryolesion of the sciatic nerve; details: sciatic nerves in mice; cited from earlier work
[8] = tested on: Dorsal root ganglia-Schwann cell co-cultures; assay: in vitro myelination in dorsal root ganglia-Schwann cell co-cultures; format: cell-based
Description: The inventors hypothesized that NAALADase may play a role in signaling myelin formation and inhibition of NAALADase may facilitate myelination. To test this hypothesis, the inventors examined the effects of several NAALADase inhibitors in a well established in vitro model system of myelination. Dorsal root ganglia-Schwann cell co-cultures were established as previously described (Einheber et al., J. Cell. Biol., Vol. 123, p. 1223). Following 7 days in co-culture, myelination was initiated following the addition of serum and ascorbic acid with various doses of NAALADase inhibitors (1 nM to 10 μM) or progesterone (20 nM; positive control). The extent of myelination was examined between days 14-21 using immunocytochemical staining for myelin basic protein (MBP), a known myelin marker.

[9] = tested on: dynorphin-induced spinal cord injury; details: co-administered with dynorphin A; by 24-hour post-injection; cited from earlier work
[10] = tested on: nicotine self-administration in rats; details: rat, in vivo; cited from earlier work
[11] = tested on: acetic acid (0.6%) induced writhing; assay: acetic acid model of pain (writhing); format: in vivo, mice; details: pretreated
Description: as §1

LNCaP tumors [12] = assay: in vivo cancer assay, LNCaP model, subcutaneous drug delivery; parameters: species or system Ncr nude male mice
Description: Ncr nude male mice, age 5 to 6 weeks, were injected in the right flank with 5×10^6 LNCaP cells in Matrigel™ (0.1 ml total injection volume). […] Controls received 50 mM HEPES s.c. daily. Once tumors were palpable they were measured twice a week.
as §2

alcohol-preferring rats = details: rat, in vivo; cited from earlier work
LNCaP cells = details: as the concentration increased; cited from earlier work
LNCaP tumors [13] = assay: in vivo cancer assay, LNCaP model, intratumoral drug delivery; parameters: species or system Ncr nude male mice
Description: Ncr nude male mice, age 5 to 6 weeks, were injected in the right flank with 10^7 LNCaP cells in Matrigel™ (0.1 ml total injection volume). When the tumors reached a predetermined size (50 to 60 mm^3) mice.were randomly placed into treatment groups of 6 to 8 mice each. […] Controls received 50 μl of 50 mM HEPES intratumorally daily. Tumors were measured twice a week.
as §2

[14] = tested on: angiogenesis in the Matrigel/bFGF gels; assay: in vivo assay of a continuous dosage on angiogenesis (minipump, Matrigel/bFGF); parameters: species or system C57B1 female mice
Description: Minipumps filled with vehicle (50 mM Hepes) were also implanted at this time. Twenty-four hours later, mice were each injected subcutaneously with 0.5 mL Matrigel™ and the 150 ng/mL of the angiogenic factor, basic FGF (bFGF). Thirteen days post Matrigel™/bFGF injection, the gels were recovered, fixed in formalin and sections were stained with Trichrome-Masson stain.

[15] = 50 mg/kg i.p. daily starting 10 days after surgery, day 18

O=C(O)CCC(CP(=O)(O)O)C(=O)O (centres unmarked) [Compound 3, 2-(phosphonomethyl)-pentanedioic acid]
concurrent glutamate changes in the parietal cortex [1]: completely prevented | stroke-induced extracellular glutamate increases in the striatum [1]: significantly attenuated | effect compared with acute pretreatment with morphine (5 mg/kg) [2]: more robust | flinching behavior, early phase ([2]; 5% formalin on day 7): 2.5±3 | flinching behavior, late phase ([2]; 5% formalin on day 7): 0.5±0.58 | tumor size, % of controls (Dunning G tumors; 10 mg/kg s.c. daily): 38% | tumor size, % of controls (Dunning G tumors; 30 mg/kg s.c. daily): 22% | effect on tumor growth (Dunning G tumors; 1 and 3 mg/kg s.c. daily): no effect on tumor growth | enhancement of cocaine (20 mg/kg)-induced locomotor activity (sensitization) ([3]; 10 and 50 mg/kg, 15 minutes prior to cocaine injections x 5 days, assessed 3 days later): significantly reduced | basal locomotor activity or the response to saline ([3]; Compound 3 on its own): did not alter | blood vessels or angiogenesis in the Matrigel plugs [4]: decrease in blood vessels or angiogenesis | protection against THA-induced toxicity [5]: dose-dependent protection | difference scores (thermal pain response) [6, 15]: −0.2±1.9 | pain attenuation vs. operated vehicle group [6, 15]: 98% | difference scores between the two paws vs. vehicle-treated controls ([6]; 50 mg/kg i.p. daily starting 10 days post surgery, significant starting at 11 days, through 21 days of dosing): dramatically normalized | TH-stained dopaminergic neurons (MPTP lesioned mice): significant recovery | myelin thickness [7]: increase | myelinated axon number [7]: increase | immunostaining of MBP ([8]; 1 nM, two week treatment): significant increase | extent of myelination vs. maximal doses of ascorbic acid and progesterone ([8]; high dose, 1 μM): greater extent of myelination | motor scores [9]: significant improvement | cumulative food intakes [10]: reduced | nicotine self-administration [10]: reduced | acetic acid (0.6%) induced writhing vs. vehicle control [11]: significantly attenuated | tumor growth, % of controls (LNCaP tumors [12]; 10 mg/kg s.c. daily, day 86): 24% | effect on tumor growth (LNCaP tumors [12]; 1, 3 and 30 mg/kg s.c. daily): no effect on tumor growth | body weights or 24 hour water intakes (alcohol-preferring rats): without affecting | ethanol consumption (alcohol-preferring rats): significantly reduced | LNCaP cell proliferation (LNCaP cells): decreased significantly | Tumor volume (LNCaP tumors [13]; after 42 days of treatment, intratumoral 0.025 μg/day): 465.7±176 mm^3 | Optimal % T/C (LNCaP tumors [13]; intratumoral 0.025 μg/day): 42% | Regressions (LNCaP tumors [13]; intratumoral 0.025 μg/day): 1/7 | Optimal % T/C (LNCaP tumors [13]; intratumoral 0.25 μg/day): 51% | Regressions (LNCaP tumors [13]; intratumoral 0.25 μg/day): 1/7 | Optimal % T/C (LNCaP tumors [13]; intratumoral 2.5 μg/day): 45% | Regressions (LNCaP tumors [13]; intratumoral 2.5 μg/day): 0/7 | Optimal % T/C (LNCaP tumors [13]; intratumoral 25.0 μg/day): 76% | Regressions (LNCaP tumors [13]; intratumoral 25.0 μg/day): 0/7 | tumor growth (LNCaP tumors [13]; intratumoral 0.025, 0.25 and 2.5 μg/day): slowed tumor growth substantially | angiogenic response ([14]; 1 μg/day by minipump): strong angiogenic response | angiogenesis in the Matrigel/bFGF gels ([14]; 10 μg/day and 100 μg/day by minipump): significantly decreased angiogenesis
